Experimental data as given in patent US9540343B2 (Gilead Sciences, Inc., priority 2011, dated 2017).

Tests used:
[1] = test system: HIV-IIIb; experiment: Test A: Antiviral assay in MT4 cells; format: cell-based, HIV-1; conditions: Human immunodeficiency virus 1, IIIB, MT4, 120 h, read-out: % inhibition at 2 μM, percent inhibition of virus-induced cell killing, from dose response curve at 2 uM drug; MT-4 cells infected with HIV-IIIb, 5 days, CellTiter-Glo
[2] = in vitro; conditions: human, uninfected MT-4 cells, CC50 (nM), same protocol as Test A, CellTiter-Glo
Procedure: For the antiviral assay, 40 μL of 1× test concentration of 3-fold serially diluted compound in culture medium with 10% FBS was added to each well of a 384-well plate (10 concentrations) in quadruplicate. MT-4 cells were next mixed with HIV-IIIb at an m.o.i of 0.003 for 1 hour, after which time 35 μL of virus/cell mixture (2000 cells) was immediately added to each well containing 40 μL of diluted compound. The plates were then incubated at 37° C. for 5 days. After 5 days of incubation, 25 μl of 2× concentrated CellTiter-Glo™ Reagent (catalog #G7571, Promega Biosciences, Inc., Madison, Wis.) was added to each well containing MT-4 cells. Cell lysis was carried out by incubating at room temperature for 10 min and then chemiluminescence was read.
Test B: Cytotoxicity Assay
Compound cytotoxicity and the corresponding CC50 values was determined using the same protocol as described in the antiviral assay (Test A) except that uninfected cells were used.

SMILES | inhibition at 2 µM [1] [%] | CC50 at 5 days [2] [nM]
NC(=O)c1cccc(-c2cccnc2[C@H](Cc2cc(F)cc(F)c2)NC(=O)C2CC23C(=O)Nc2ccccc23)c1 (stereo partly drawn) [Example 225, N—((S)-1-(3-(3-carbamoylphenyl)pyridin-2-yl)-2-(3,5-difluorophenyl)ethyl)-2′-oxospiro[cyclopropane-1,3′-indoline]-2-carboxamide] | 15 | 23000
NC(=O)c1cc(-c2cccnc2[C@H](Cc2cc(F)cc(F)c2)NC(=O)Cn2nc(C(F)(F)F)c3c2CCC(=O)C3)ccc1F [Example 446, (S)-5-(2-(2-(3,5-difluorophenyl)-1-(2-(5-oxo-3-(trifluoromethyl)-4,5,6,7-tetrahydro-1H-indazol-1-yl)acetamido)ethyl)pyridin-3-yl)-2-fluorobenzamide] | 79 | > 53200
NC(=O)c1cc(-c2cccnc2[C@H](Cc2cc(F)cc(F)c2)NC(=O)[C@H]2CC[C@@H](c3ccccc3)N2)ccc1F [Example 183, (2R,5S)—N—((S)-1-(3-(3-carbamoyl-4-fluorophenyl)pyridin-2-yl)-2-(3,5-difluorophenyl)ethyl)-5-phenylpyrrolidine-2-carboxamide] | 0 | 35200
Nc1ncc(-c2cccnc2[C@H](Cc2cc(F)cc(F)c2)NC(=O)Cn2nc(C(F)F)c3c2C(F)(F)CCC3(F)F)cc1C(F)(F)F [Example 371, (S)—N-(1-(6′-amino-5′-(trifluoromethyl)-3,3′-bipyridin-2-yl)-2-(3,5-difluorophenyl)ethyl)-2-(3-(difluoromethyl)-4,4,7,7-tetrafluoro-4,5,6,7-tetrahydro-1H-indazo-1-yl)acetamide] | 83 | 7590
NS(=O)(=O)c1ccc(-c2cccnc2[C@H](Cc2cc(F)cc(F)c2)NC(=O)Cc2c[nH]c3ccc(O)cc23)cc1 [Example 43, (S)—N-(2-(3,5-difluorophenyl)-1-(3-(4-sulfamoylphenyl)pyridin-2-yl)ethyl)-2-(5-hydroxy-1H-indol-3-yl)acetamide] | 28 | > 53000
CC(C)(C)OC(=O)N1CCC[C@H]1C(=O)N[C@@H](Cc1cc(F)cc(F)c1)c1ncccc1-c1ccc(F)c(C(N)=O)c1 [Example 171, (S)-tert-butyl 2-((S)-1-(3-(3-carbamoyl-4-fluorophenyl)pyridin-2-yl)-2-(3,5-difluorophenyl)ethylcarbamoyl)pyrrolidine-1-carboxylate] | 4 | 11900
CC(C)NS(=O)(=O)c1ccc(-c2cccnc2[C@H](Cc2cc(F)cc(F)c2)NC(=O)Cn2nc(C(F)F)c3c2C(F)(F)C2CC32)cc1 (stereo partly drawn) [Example 70, (S)—N-(1-(3-(4-(N-isopropylsulfamoyl)phenyl)-pyridin-2-yl)-2-(3,5-difluorophenyl)ethyl)-2-(3-(difluoromethyl)-5,6-dihydro-4,5-(methano)-6,6-difluoro-cyclopenta[c]pyrazol-1(4H)-yl)acetamide] | 56 | 51200
COC(=O)c1c2c(nn1CC(=O)N[C@@H](Cc1cc(F)cc(F)c1)c1ncccc1-c1ccc(F)c(C(N)=O)c1)COC2 [Example 453, (S)-methyl 2-(2-((1-(3-(3-carbamoyl-4-fluorophenyl)pyridin-2-yl)-2-(3,5-difluorophenyl)ethyl)amino)-2-oxoethyl)-4,6-dihydro-2H-furo[3,4-c]pyrazole-3-carboxylate] | 3 | > 53200
NC(=O)c1cccc(-c2cccnc2[C@H](Cc2cc(F)cc(F)c2)NC(=O)Cn2ccc3ccc(=O)[nH]c32)c1 [Example 298C, (S)-3-(2-(2-(3,5-difluorophenyl)-1-(2-(6-oxo-6,7-dihydro-1H-pyrrolo[2,3-b]pyridin-1-yl)acetamido)ethyl)pyridin-3-yl)benzamide] | 61 | > 53000
CC1CCCc2c(C(F)(F)F)nn(CC(=O)N[C@@H](Cc3cc(F)cc(F)c3)c3ncccc3-c3cccc(C(N)=O)c3)c21 (stereo partly drawn) [Example 52, 3-(2-((1S)-2-(3,5-difluorophenyl)-1-(2-(7-methyl-3-(trifluoromethyl)-4,5,6,7-tetrahydro-1H-indazol-1-yl)acetamido)ethyl)pyridin-3-yl)benzamide] | 92 | 13300
NC(=O)c1cc(-c2cccnc2[C@H](Cc2cc(F)cc(F)c2)NC(=O)Cn2nc(C(F)(F)F)c3c2C(F)(F)CCC3=O)ccc1F [Example 340B, (S)-5-(2-(1-(2-(7,7-difluoro-4-oxo-3-(trifluoromethyl)-4,5,6,7-tetrahydro-1H-indazol-1-yl)acetamido)-2-(3,5-difluorophenyl)ethyl)pyridin-3-yl)-2-fluorobenzamide] | 32 | 32800
NC(=O)c1cc(-c2cncnc2[C@H](Cc2cc(F)cc(F)c2)NC(=O)Cn2nc(C(F)(F)F)c3c2CC2CC32)ccc1F (stereo partly drawn) [Example 136D, 5-(4-((1S)-2-(3,5-difluorophenyl)-1-(2-(3-(trifluoromethyl)-3b,4,4a,5-tetrahydro-1H-cyclopropa[3,4]cyclopenta[1,2-c]pyrazol-1-yl)acetamido)ethyl)pyrimidin-5-yl)-2-fluorobenzamide] | 88 | 27800
NC(=O)c1cc(-c2cccnc2[C@H](Cc2cccc(F)c2)NC(=O)CN2CC(=O)Nc3ccccc32)ccc1F [Example 264, (S)-2-fluoro-5-(2-(2-(3-fluorophenyl)-1-(2-(3-oxo-3,4-dihydroquinoxalin-1(2H)-yl)acetamido)ethyl)pyridin-3-yl)benzamide] | 24 | > 53200
O=C(Cn1nc(C(F)(F)F)c2c1CCCC2)N[C@@H](Cc1cc(F)cc(F)c1)c1ncccc1-c1ccc(S(=O)(=O)N2CCOCC2)cc1 [Example 105, (S)—N-(2-(3,5-difluorophenyl)-1-(3-(4-(morpholinosulfonyl)phenyl)pyridin-2-yl)ethyl)-2-(3-(trifluoromethyl)-4,5,6,7-tetrahydro-1H-indazol-1-yl)acetamide] | 99 | 9080
O=C(Cc1c[nH]c2ccc(F)cc12)N[C@@H](Cc1cc(F)cc(F)c1)c1ncccc1-c1cc(Cl)cc(Cl)c1 [Example 422] | 0 | 6760
N#Cc1cccc(-c2cccnc2[C@H](Cc2cc(F)cc(F)c2)NC(=O)Cc2c[nH]c3ccc(O)cc23)c1 [Example 38E, (S)—N-(1-(3-(3-cyanophenyl)pyridin-2-yl)-2-(3,5-difluorophenyl)ethyl)-2-(5-hydroxy-1H-indol-3-yl)acetamide] | 86 | 28600
Cc1nnc(-c2cccc(-c3cccnc3[C@H](Cc3cc(F)cc(F)c3)NC(=O)Cc3c[nH]c4ccc(F)cc34)c2)o1 [Example 99, (S)—N-(2-(3,5-difluorophenyl)-1-(3-(3-(5-methyl-1,3,4-oxadiazol-2-yl)phenyl)pyridin-2-yl)ethyl)-2-(5-fluoro-1H-indol-3-yl)acetamide] | 0 | > 53200
NC(=O)c1cccc(-c2cccnc2[C@H](Cc2cc(F)cc(F)c2)NC(=O)CC2C(=O)Nc3ccc(F)cc32)c1 (stereo partly drawn) [Example 196, 3-(2-((1S)-2-(3,5-difluorophenyl)-1-(2-(5-fluoro-2-oxoindolin-3-yl)acetamido)ethyl)pyridin-3-yl)benzamide] | 2 | 29600
O=C(Cn1nc(C(F)(F)F)c2c1CCCC2)NC(Cc1cc(F)cc(F)c1)c1nccnc1-c1ccc(Cl)cc1 (stereo not drawn) [Example 474, N-(1-(3-(4-chlorophenyl)pyrazin-2-yl)-2-(3,5-difluorophenyl)ethyl)-2-(3-(trifluoromethyl)-4,5,6,7-tetrahydro-1H-indazol-1-yl)acetamide] | 17 | 9980
NC(=O)c1cc(-c2cccnc2[C@H](Cc2cc(F)cc(F)c2)NC(=O)Cn2nc(C(F)(F)F)c3c2C(=O)CCC3)ccc1F [Example 273, (S)-5-(2-(2-(3,5-difluorophenyl)-1-(2-(7-oxo-3-(trifluoromethyl)-4,5,6,7-tetrahydro-1H-indazol-1-yl)acetamido)ethyl)pyridin-3-yl)-2-fluorobenzamide] | 10 | 29600
O=C(Cc1c[nH]c2ccccc12)N[C@@H](Cc1cc(F)cc(F)c1)c1ncccc1-c1ccc(Cl)cc1 [Example 31, (S)—N-(1-(3-(4-chlorophenyl)pyridin-2-yl)-2-(3,5-difluorophenyl)ethyl)-2-(1H-indol-3-yl)acetamide] | 34 | 8630
Cc1[nH]nc(-c2ccccc2)c1CC(=O)N[C@@H](Cc1cc(F)cc(F)c1)c1ncccc1-c1ccc(F)c(C(N)=O)c1 [Example 184, (S)-5-(2-(2-(3,5-difluorophenyl)-1-(2-(5-methyl-3-phenyl-1H-pyrazol-4-yl)acetamido)ethyl)pyridin-3-yl)-2-fluorobenzamide] | 5 | 43200
NC(=O)c1cc(-c2cccnc2[C@H](Cc2cc(F)cc(F)c2)NC(=O)Cn2nc(C(F)(F)F)c3c2CNCC3)ccc1F [Example 352, (S)-5-(2-(2-(3,5-difluorophenyl)-1-(2-(3-(trifluoromethyl)-4,5,6,7-tetrahydro-1H-pyrazolo[3,4-c]pyridin-1-yl)acetamido)ethyl)pyridin-3-yl)-2-fluorobenzamide] | 16 | –
